Results published in ChEMBL document CHEMBL1201862, “PubChem BioAssay data set” (2004).
“And” between values parts separate entries of the source, which are not always exact repeats. Identical values can stand only once. The source made the active and inactive calls.

How the values were obtained:
[1] = viability of uninfected HEp-2 cells – cell-based, HTS, cytotoxicity control for RSV inhibitor project, dose response (AID 2410); format: functional; details: human respiratory syncytial virus
[2] = molecular target: T1, Insulin-degrading enzyme (Homo sapiens, UniProt P14735); test: recombinant IDE activation, cell-free – biochemical, fluorescence polarization, counter-screen for IDE activator project, dose response (AID 588681)
T1 sequence (P14735 whole entry): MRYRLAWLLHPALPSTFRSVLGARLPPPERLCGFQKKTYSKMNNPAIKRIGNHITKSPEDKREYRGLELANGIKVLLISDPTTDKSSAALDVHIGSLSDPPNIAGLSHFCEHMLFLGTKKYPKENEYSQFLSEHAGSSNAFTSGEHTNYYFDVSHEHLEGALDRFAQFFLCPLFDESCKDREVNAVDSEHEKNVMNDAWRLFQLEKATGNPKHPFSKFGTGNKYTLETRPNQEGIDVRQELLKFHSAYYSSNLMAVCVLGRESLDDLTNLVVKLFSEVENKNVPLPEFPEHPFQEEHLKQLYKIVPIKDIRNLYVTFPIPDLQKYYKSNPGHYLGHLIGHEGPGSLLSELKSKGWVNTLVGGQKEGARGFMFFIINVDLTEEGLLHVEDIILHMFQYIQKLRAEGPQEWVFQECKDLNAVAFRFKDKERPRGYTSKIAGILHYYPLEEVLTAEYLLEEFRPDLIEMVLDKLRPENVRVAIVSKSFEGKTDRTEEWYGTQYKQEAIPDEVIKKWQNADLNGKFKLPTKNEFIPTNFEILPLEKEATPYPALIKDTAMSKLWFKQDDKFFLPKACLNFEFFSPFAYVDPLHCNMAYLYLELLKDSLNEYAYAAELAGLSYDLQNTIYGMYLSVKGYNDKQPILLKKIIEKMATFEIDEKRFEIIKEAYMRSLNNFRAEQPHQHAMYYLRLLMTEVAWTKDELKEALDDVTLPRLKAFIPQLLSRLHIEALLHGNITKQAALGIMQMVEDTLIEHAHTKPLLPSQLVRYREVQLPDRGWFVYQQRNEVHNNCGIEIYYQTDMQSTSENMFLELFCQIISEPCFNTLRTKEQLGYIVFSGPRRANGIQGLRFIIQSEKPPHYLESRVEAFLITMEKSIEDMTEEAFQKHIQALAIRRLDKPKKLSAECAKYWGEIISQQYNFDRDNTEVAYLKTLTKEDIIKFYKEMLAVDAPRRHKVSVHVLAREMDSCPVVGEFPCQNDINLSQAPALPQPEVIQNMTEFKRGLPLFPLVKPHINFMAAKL

[3] = system: Vero; test: cells; format: functional, cell-based; details: Chlorocebus sabaeus
[4] = molecular target: T1, Insulin-degrading enzyme; test: cellular IDE activation of Abeta substrate cleavage – fluorescence polarization, HEK cells, dose response (AID 588439); format: functional, cell-based
[5] = system: Vero; test: cells; format: functional; details: Chlorocebus sabaeus
[6] = system: HEK293; test: membrane integrity loss in HEK cells – cell-based, fluorescence, cytotoxicity control for IDE activator project, dose response (AID 588440); format: functional; details: Homo sapiens;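 also: cytotoxicity by LDH release measuring loss of membrane integrity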
[7] = system: HEK293; test: optical interference in Abeta FP readout, dose response, artefact control for IDE activator project, biochemical, fluorescence polarization (AID 588442); format: functional, cell-based; details: Homo sapiens
[8] = cells
[9] = molecular target: Activin receptor type-1 (Homo sapiens, UniProt Q04771); test: Navigating the Kinome. Panel member name: ACVR1; format: functional
[10] = molecular target: T2, Estrogen receptor (Homo sapiens, UniProt P03372);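 also: potency for inhibiting coactivator peptide recruitment to the receptor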
T2 sequence (P03372 whole entry): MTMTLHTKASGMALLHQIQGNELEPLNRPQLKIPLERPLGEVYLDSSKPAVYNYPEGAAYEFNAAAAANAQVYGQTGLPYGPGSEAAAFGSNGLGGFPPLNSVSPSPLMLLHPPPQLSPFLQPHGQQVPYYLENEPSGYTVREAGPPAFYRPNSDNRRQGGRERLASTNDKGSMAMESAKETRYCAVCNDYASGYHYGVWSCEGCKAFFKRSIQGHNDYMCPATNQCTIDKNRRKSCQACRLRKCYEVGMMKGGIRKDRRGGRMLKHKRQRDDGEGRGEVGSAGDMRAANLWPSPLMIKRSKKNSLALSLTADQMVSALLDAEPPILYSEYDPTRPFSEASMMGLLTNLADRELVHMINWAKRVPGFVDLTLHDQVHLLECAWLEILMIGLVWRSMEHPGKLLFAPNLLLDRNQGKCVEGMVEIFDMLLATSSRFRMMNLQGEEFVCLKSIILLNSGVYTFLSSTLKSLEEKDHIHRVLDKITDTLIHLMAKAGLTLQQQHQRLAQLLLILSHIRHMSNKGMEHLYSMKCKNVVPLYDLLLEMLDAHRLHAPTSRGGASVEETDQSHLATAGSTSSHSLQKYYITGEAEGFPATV

[11] = molecular target: T3, Estrogen receptor beta (Homo sapiens, UniProt Q92731);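 also: recombinant ER-beta bound to coactivator SRC1 peptide in presence of estradiol agonist; inhibitors block coactivator peptide binding and lower the FRET signal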
T3 sequence (Q92731 whole entry): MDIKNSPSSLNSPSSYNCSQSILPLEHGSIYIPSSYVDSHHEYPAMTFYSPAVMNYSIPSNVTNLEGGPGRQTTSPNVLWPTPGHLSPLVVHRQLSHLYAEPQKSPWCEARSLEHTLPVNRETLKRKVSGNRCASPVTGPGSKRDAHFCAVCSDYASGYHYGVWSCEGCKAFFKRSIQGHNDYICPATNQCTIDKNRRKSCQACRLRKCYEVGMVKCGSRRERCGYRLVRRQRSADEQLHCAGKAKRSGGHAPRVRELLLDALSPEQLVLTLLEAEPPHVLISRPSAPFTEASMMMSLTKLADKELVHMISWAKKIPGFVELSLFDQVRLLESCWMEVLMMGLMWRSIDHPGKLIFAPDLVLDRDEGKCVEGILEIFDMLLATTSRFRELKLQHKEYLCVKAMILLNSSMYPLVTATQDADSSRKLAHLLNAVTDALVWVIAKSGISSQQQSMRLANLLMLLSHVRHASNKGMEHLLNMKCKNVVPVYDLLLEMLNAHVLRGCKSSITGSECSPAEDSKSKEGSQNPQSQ

[12] = molecular target: T3, Estrogen receptor beta; test: blockers of SRC-3 recruitment to ERβ – biochemical, ELISA, streptavidin-HRP readout, orthogonal assay, confirmation (AID 1060)
[13] = molecular target: Low molecular weight phosphotyrosine protein phosphatase (Homo sapiens, UniProt P24666); format: functional; details: read-out: IC50_Mean;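 also: Dose-response confirmation assay measuring inhibition of LMPTP enzyme activity by fluorescence intensity read-out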
Low molecular weight phosphotyrosine protein phosphatase, sequence (P24666 whole entry): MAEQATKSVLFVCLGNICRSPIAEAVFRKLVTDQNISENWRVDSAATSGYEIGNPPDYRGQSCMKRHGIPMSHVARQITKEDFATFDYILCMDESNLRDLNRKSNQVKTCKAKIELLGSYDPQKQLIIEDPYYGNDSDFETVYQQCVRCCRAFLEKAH

[14] = molecular target: T4, Histone-lysine N-methyltransferase NSD2 (Homo sapiens, UniProt O96028); format: biochemical
T4 sequence (O96028 whole entry): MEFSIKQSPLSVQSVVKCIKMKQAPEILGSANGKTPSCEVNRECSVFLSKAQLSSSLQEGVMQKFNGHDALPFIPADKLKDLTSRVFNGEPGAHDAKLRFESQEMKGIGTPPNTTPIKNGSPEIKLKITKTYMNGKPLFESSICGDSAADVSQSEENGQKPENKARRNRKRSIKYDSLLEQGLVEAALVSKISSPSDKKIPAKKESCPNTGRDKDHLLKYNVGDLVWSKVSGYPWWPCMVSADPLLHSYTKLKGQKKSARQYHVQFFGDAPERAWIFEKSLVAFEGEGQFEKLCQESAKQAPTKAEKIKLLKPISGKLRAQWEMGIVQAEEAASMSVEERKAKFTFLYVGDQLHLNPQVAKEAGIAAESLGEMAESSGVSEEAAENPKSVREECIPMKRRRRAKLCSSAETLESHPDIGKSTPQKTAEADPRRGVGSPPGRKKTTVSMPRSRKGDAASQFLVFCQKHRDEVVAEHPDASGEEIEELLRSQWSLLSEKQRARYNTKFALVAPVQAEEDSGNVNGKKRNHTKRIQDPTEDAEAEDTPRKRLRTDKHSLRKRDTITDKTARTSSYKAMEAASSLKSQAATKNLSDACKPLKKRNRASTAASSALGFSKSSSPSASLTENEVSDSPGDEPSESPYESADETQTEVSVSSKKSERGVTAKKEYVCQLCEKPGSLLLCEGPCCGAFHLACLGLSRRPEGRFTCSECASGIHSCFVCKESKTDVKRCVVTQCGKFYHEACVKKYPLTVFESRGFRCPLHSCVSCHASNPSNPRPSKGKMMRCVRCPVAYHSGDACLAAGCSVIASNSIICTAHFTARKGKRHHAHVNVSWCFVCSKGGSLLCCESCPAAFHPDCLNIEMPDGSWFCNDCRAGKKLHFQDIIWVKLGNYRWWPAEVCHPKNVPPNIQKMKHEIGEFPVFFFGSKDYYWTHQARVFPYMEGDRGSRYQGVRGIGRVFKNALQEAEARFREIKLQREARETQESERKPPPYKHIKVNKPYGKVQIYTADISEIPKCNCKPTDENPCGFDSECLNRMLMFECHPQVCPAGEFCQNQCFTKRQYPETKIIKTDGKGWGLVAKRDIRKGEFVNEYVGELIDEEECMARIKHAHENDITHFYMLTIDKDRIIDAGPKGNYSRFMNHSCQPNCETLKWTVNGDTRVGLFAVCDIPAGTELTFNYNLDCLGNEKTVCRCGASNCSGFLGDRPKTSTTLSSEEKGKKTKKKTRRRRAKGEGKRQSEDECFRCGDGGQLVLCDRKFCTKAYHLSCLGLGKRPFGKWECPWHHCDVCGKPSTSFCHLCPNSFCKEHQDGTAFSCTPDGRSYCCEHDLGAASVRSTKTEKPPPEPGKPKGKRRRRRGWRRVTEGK

[15] = molecular target: T5, Apoptotic protease-activating factor 1 (Homo sapiens, UniProt O14727); test: SAR analysis of small molecule Activators of Apaf-1 in a Fluorescent assay.; format: functional; details: read-out: EC50_Mean;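 also: caspase-3 cleavage of fluorogenic Rh110 DEVD substrate downstream of apoptosome activation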
T5 sequence (O14727 whole entry): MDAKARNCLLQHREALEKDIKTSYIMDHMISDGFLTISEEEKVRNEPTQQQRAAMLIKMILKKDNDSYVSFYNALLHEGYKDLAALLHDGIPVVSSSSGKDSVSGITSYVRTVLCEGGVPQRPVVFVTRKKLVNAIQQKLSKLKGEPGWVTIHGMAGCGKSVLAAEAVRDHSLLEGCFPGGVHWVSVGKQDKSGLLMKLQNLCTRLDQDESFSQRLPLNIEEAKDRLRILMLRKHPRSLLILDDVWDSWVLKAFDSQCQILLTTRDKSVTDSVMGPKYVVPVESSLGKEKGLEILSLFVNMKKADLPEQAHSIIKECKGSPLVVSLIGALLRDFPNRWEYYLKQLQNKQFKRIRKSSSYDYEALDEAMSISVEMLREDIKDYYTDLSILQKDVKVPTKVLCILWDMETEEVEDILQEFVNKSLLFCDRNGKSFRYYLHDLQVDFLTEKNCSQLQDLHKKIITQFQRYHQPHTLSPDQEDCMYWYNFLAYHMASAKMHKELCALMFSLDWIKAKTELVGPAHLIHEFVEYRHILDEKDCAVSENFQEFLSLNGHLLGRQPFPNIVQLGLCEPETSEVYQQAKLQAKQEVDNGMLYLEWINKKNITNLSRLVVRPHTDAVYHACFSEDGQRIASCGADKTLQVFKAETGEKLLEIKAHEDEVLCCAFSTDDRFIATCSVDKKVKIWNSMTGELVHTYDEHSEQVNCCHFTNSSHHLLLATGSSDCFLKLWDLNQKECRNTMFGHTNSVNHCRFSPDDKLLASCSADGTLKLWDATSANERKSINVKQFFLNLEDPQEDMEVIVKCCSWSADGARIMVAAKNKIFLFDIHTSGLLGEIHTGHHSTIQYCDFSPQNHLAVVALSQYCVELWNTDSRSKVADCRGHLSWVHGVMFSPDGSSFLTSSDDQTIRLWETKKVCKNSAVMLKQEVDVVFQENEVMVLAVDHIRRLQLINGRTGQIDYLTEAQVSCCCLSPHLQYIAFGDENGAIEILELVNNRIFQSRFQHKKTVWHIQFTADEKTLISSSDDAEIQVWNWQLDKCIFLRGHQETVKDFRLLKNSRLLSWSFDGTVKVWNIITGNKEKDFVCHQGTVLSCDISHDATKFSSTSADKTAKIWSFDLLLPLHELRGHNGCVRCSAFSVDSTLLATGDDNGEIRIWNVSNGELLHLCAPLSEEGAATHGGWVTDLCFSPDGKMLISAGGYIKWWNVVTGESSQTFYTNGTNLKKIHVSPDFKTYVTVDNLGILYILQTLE

[16] = molecular target: SUMO E1/E2 (Homo sapiens, UniProt P63279+Q9UBE0+Q9UBT2); test: SAR analysis of SUMOylation using HTRF in an in-Vitro dose response assay. [Related pubchem assays (depositor defined):AID2006, AID2011, AID2018, AID2069, AID2658]; format: functional
[17] = molecular target: T6, Voltage-gated N-type calcium channel alpha-1B subunit/Amyloid beta A4 precursor protein-binding family A member 1 (Homo sapiens, UniProt Q00975+Q02410); test: disruptors of Mint-PDZ/N-type channel peptide interaction – biochemical, HTRF, set 2, SAR follow-up (AID 434980); format: functional
T6 sequence (Q00975 whole entry): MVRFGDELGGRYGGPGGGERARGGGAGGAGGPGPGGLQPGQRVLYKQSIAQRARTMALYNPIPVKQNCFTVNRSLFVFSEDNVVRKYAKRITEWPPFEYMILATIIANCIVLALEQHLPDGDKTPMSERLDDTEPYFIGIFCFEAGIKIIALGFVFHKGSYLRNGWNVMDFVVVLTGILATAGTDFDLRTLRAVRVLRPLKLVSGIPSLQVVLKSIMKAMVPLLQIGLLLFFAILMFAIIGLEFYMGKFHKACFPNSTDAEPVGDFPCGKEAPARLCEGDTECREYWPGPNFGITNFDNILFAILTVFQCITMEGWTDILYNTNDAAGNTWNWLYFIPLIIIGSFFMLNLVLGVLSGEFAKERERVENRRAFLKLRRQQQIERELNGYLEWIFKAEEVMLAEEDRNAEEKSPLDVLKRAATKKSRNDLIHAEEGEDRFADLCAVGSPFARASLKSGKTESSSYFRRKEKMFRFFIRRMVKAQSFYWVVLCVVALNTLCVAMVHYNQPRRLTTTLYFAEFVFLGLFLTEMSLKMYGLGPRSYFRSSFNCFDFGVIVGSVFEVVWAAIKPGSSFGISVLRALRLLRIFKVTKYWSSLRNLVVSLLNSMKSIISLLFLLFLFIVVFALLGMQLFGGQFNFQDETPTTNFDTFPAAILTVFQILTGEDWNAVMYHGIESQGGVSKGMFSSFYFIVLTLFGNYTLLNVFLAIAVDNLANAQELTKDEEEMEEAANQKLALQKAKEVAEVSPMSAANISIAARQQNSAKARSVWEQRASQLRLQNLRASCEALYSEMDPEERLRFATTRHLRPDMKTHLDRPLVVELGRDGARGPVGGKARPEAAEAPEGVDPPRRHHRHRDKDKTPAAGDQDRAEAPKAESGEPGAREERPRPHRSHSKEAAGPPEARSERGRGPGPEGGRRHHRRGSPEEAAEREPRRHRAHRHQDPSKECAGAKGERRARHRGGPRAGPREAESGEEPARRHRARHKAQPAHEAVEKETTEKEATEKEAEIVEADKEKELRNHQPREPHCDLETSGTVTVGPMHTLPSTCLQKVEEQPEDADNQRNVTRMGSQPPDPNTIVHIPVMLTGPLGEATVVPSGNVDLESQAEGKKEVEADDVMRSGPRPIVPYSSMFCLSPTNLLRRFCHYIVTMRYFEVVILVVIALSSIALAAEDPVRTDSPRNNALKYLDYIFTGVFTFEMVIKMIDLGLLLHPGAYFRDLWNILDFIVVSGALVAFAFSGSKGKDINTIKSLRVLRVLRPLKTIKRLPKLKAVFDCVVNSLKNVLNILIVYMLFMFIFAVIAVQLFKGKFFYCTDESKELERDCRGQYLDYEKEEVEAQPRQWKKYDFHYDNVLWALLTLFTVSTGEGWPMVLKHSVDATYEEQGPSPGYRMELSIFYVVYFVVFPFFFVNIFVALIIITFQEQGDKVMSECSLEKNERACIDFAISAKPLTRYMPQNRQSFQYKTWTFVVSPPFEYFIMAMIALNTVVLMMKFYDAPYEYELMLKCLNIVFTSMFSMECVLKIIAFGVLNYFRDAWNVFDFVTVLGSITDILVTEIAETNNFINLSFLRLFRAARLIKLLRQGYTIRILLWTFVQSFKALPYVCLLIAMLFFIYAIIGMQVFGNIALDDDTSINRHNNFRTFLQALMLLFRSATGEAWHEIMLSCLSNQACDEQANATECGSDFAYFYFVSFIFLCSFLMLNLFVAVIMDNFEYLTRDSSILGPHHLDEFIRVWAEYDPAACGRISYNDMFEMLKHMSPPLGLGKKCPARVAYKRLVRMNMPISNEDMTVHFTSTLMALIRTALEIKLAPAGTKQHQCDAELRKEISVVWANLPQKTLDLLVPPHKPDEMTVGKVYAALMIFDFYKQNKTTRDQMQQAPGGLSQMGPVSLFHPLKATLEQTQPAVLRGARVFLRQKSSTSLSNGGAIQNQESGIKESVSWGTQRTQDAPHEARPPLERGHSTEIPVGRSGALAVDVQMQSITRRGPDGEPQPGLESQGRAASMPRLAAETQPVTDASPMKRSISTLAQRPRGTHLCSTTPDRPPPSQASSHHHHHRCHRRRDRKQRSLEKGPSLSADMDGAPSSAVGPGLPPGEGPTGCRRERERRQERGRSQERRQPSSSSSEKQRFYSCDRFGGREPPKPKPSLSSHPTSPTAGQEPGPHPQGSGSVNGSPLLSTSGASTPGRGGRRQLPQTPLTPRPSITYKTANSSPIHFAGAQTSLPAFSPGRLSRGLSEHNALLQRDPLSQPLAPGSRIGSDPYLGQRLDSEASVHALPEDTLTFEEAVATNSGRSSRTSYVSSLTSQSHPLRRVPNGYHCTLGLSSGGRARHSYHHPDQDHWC
T6 sequence (Q02410 whole entry): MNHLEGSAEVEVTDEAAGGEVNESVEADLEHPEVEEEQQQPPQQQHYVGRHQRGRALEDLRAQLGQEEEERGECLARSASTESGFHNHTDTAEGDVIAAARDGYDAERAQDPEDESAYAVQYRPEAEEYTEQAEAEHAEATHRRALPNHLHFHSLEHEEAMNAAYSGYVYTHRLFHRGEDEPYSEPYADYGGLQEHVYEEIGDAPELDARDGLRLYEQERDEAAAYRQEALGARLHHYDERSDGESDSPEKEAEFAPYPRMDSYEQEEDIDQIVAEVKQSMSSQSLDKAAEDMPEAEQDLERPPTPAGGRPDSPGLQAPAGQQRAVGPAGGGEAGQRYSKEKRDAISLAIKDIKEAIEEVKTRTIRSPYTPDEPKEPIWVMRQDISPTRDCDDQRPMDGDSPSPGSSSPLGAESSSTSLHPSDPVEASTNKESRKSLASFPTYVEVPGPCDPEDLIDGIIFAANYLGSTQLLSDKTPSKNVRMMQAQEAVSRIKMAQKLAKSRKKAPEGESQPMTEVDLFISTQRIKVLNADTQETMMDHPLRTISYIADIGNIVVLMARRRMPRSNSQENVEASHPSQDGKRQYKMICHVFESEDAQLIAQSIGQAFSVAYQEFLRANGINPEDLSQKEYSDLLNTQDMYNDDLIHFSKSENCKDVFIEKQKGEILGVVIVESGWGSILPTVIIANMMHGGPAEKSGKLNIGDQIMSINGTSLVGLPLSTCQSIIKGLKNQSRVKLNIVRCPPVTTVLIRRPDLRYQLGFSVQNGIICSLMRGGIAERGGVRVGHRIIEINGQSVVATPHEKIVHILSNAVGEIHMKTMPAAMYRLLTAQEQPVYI

[18] = molecular target: T6, Voltage-gated N-type calcium channel alpha-1B subunit/Amyloid beta A4 precursor protein-binding family A member 1; test: disruptors of Mint-PDZ/N-type channel peptide interaction – biochemical, HTRF, SAR follow-up (AID 2489); format: functional
[19] = molecular target: Potassium voltage-gated channel subfamily KQT member 2 (Rattus norvegicus, UniProt O88943); test: blockers of KCNQ2 channel current – cell-based, automated electrophysiology, set II, rat KCNQ2, dose response (AID 588637); format: functional
Potassium voltage-gated channel subfamily KQT member 2, sequence (O88943 whole entry, the tested form may be a part): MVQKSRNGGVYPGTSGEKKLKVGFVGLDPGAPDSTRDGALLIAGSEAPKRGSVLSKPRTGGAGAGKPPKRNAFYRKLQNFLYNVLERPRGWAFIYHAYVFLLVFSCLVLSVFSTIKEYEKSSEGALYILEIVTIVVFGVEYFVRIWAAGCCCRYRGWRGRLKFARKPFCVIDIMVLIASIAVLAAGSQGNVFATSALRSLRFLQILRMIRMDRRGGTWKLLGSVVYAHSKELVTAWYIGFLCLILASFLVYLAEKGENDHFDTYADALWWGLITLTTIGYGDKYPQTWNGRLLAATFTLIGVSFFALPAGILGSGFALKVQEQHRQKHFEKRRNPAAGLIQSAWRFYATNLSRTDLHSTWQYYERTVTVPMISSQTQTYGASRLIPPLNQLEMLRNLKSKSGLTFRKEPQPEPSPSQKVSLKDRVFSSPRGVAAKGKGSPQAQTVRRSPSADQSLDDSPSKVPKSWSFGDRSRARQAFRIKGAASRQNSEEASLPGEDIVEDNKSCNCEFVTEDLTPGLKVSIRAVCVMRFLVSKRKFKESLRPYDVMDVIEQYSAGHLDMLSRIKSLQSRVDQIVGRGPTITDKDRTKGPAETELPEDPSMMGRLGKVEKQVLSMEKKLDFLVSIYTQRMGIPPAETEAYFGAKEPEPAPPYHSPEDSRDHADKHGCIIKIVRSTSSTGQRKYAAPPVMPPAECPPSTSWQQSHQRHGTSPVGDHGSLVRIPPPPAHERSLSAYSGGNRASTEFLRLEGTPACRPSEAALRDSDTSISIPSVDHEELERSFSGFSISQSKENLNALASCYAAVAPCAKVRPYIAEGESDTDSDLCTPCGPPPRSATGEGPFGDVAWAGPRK

[20] = molecular target: T7, Carboxy-terminal domain RNA polymerase II polypeptide A small phosphatase 1 (Homo sapiens, UniProt Q9GZU7); test: CTDSP1 inhibitors, concentration-response, biochemical, absorbance readout, ultra-high-throughput screen actives (AID 540297); format: functional
T7 sequence (Q9GZU7 whole entry): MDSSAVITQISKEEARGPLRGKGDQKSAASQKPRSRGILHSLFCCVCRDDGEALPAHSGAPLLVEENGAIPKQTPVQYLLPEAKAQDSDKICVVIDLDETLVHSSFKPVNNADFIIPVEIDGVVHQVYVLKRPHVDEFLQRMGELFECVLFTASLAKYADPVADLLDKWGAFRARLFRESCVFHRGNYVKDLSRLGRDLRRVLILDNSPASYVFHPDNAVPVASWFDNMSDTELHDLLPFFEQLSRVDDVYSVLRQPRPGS

O=C(O)c1ccccc1Nc1ccc([N+](=O)[O-])cc1
CC50 [1]: 8.65 µM (active)
EC50 [2]: 14 µM (inactive)
IC50 [3]: 8.6 µM (active)
EC50 [4]: 7.99 µM (active)
CC50 [5]: > 25 µM (active)
IC50 [6]: > 89.1 µM (inactive)
EC50 [7]: 6.88 µM (active)
IC50 [8]: 2.4 µM (active)

CCc1nnc(NS(=O)(=O)c2ccc(N/C=C3/C(=O)NC(=O)N(c4ccc(Cl)cc4)C3=O)cc2)s1
EC50 [2]: > 54.7 µM (inactive)
EC50 [4]: > 54.7 µM (inactive)
IC50 [6]: > 89.2 µM (inactive)
EC50 [7]: > 54.7 µM (inactive)

O=C1Cc2c([nH]c3ccc([N+](=O)[O-])cc23)-c2ccccc2N1 [ALSTERPAULLONE]
Ki [9]: 0.0631 µM (active)

CCN(c1ccccc1)S(=O)(=O)c1cc(C(=O)O)ccc1C
IC50 [10]: 13.1 µM (active)
IC50 [11]: 6.12 µM (active)
IC50 [12]: 1.83 µM (not active)
IC50 [13]: 21 µM (inactive)
AC50 [14]: 9.26 µM (active)

CC(Cc1ccc2c(c1)OCO2)C(=O)O (centres undefined)
EC50 [15]: > 100 µM (inactive)

COc1ccc(CCNC(=O)c2cc(-c3ccco3)nc3ccccc23)cc1
IC50 [16]: 16.5 µM (active)
IC50 [17]: 12.8 µM (active) and > 56.8 µM (inactive)
IC50 [18]: 17.3 µM (active) and > 56.8 µM (inactive)
IC50 [19]: 4.08 µM (active)
IC50 [20]: 4.22 µM (active)
